Patent US20150065416A1, “NOVEL DRUG COMBINATION” (FAB PHARMA SAS, priority 2013, published 2015)
Read-outs that look alike come from different tables or passages of the source.

Tests used:
A. baumannii isolates = assay: Time kill study (Example 4); assay type: cell-based, Acinetobacter baumannii; settings: for Time to kill 99.9%: alone; for MIC: Acinetobacter baumannii, read-out: MIC; for effect in time-kill studies when tested alone: alone at 1× or 4×MIC
Description: A total of 12 isolates were tested (three per sub-group either susceptible, meropenem-resistant, amikacin-resistant or colistin-resistant). Two combinations were tested per isolate. Time-kill kinetics were performed by testing compound (I) and an additional antibacterial agent (amikacin, colistin and meropenem) individually at 1× and 4× the corresponding MIC of each antibacterial agent. […] Samples were taken at 0, 2, 4, 8 and 24 hours in order to determine colony forming units (CFU/mL).
Time-kill studies were carried out as described in General Procedures using combinations of compound (I) with amikacin, meropenem and colistin, respectively.

A. baumannii SAN strain = assay: Bactericidal activity (time kill kinetics, Example 5); assay type: cell-based, Acinetobacter baumannii; settings: alone at 2×MIC
Description: In addition, a second set of experiments involved the testing of compound(I)/additional antibacterial agent combinations of 2×/2×MIC. Samples were taken at 0, 3, 6 and 24 hours in order to determine colony forming units (CFU/mL).

A. baumannii SAN-94040 [1] = assay: Mouse model of A. baumannii pneumonia, Study 1: survival; assay type: in vivo, Acinetobacter baumannii
Description: (§1) The bacterial inoculum was prepared in order to obtain a suspension containing 10^8 CFU/mL of Acinetobacter baumannii in saline.
(§2) Experimentations were performed with six-week old female C3H/HeN mice (18-20 g, Breeding Centre JANVIER (Ile saint Genest Mayenne 53)) because of their particular susceptibility to Acinetobacter baumannii and the reproducibility of the results (inbreeding in the breed). Each mouse was individually marked and housed in cages containing five animals/cage under ventilated and controlled (temperature and humidity) atmosphere.
(§3) The mice were rendered transiently neutropenic by 2 intra-peritoneal (IP) injections of 150 μL of cyclophosphamide (Endoxan® 150 mg/kg) 4 (D-4) and 3 (D-3) days before the Acinetobacter baumannii inoculation (Day 0). This transient immunosuppression was sufficient to facilitate the development of the A. baumannii pneumonia while allowing the recovery of the neutrophil influx 2 (Day 2) days after inoculation in order to avoid or limit a systemic bacterial dissemination.
(§4) Mice were anesthetized by a mixture of oxygen and isoflurane. The bacterial inoculation was performed on Day 0 by intra-tracheal installation using an endotracheal catheter (50 μl of the suspension, thus 5.106 CFU). The positioning of the catheter in the trachea (instead of in the oesophagus) was checked by a “ring test”. The bacterial count in lungs was checked for all study groups by sacrificing one mouse immediately after inoculation.
Survival observations were assessed twice daily, up to 4 days post infection. The survival rates were compared with the Chi-square test or the Fisher exact test as appropriate. The survival curves were compared by the Kaplan-Meier method.
The aim of this experiment was to assess the […], with compound (I) via intra-peritoneal route at 200 mg/kg 3 times daily (every 8 hours) for 1 day alone and in combination with meropenem at 50 mg/kg 3 times daily (every 8 hours) for 1 day or with amikacin at 18 mg/kg 3 times daily (every 8 hours) for 1 day.

A. baumannii SAN-94040 [2] = assay: Mouse model of A. baumannii pneumonia, Study 2: bacterial counts in blood and tissues; assay type: in vivo, Acinetobacter baumannii
Description: as §1, §2, §3, §4
Sample time points: T0 (pre-inoculation), T24h (post inoculation), T48h and T72h.
Blood samples preparation: At each time point, three mice were sacrificed per group by cervical dislocation.
Tissue samples preparation: At each time point, three mice were sacrificed per group. Lungs, kidneys, liver and spleen were collected after the blood sampling and cervical dislocation. Tissues were wiped with a sterile gauze to remove blood contaminant outside. Tissues were then be weighed, finely ground and plated on agar for quantitative culture. Cultures were incubated at 37° C. for 18 to 24 hours.
The aim of this experiment was to assess the bacterial counts in blood, lungs, spleen, liver and kidneys of transiently neutropenic female C3H/HeN mice administered, 3 hours post-inoculation of A. baumannii SAN-94040 via intra-tracheal route, with compound (I) via intra-peritoneal route at 200 mg/kg 3 times daily (every 8 hours) for 1 day alone and in combination with meropenem at 50 mg/kg 3 times daily (every 8 hours) for 1 day or with amikacin at 18 mg/kg 3 times daily (every 8 hours) for 1 day.
All results concerning bacterial counts were expressed from Day 0 (inoculation) to 72 hours post-inoculation (Day 3). Bacterial counts on Day 3 were carried out only on surviving mice and results were more objectionable for interpretation. On Day 0, only bacterial count in lung of control mice was performed. Bacterial cell counts were determined as set out in the General Procedures.

[3] = Study 1, 0 h after infection, doses as E210
[4] = Study 1, 24 h after infection, doses as E210
[5] = Study 1, 48 h after infection, doses as E210
[6] = Study 1, 72 h after infection, doses as E210
[7] = Study 1, 96 h after infection, doses as E210
[8] = Study 1, C3H/HeN mice, 0 h after SAN-94040 infection, compound (I) 200 mg/kg, amikacin 18 mg/kg, meropenem 50 mg/kg q 8 h I.P.
[9] = Study 2, 24 h, compound (I) 200 mg/kg Q8h, amikacin 18 mg/kg, meropenem 50 mg/kg Q8h I.P. for 1 day

## CCc1cc(O)c(Oc2ccc(C(N)=O)cc2F)cc1F [compound (I), 4-(4-ethyl-5-fluoro-2-hydroxyphenoxy)-3-fluorobenzamide]
A. baumannii isolates; AMK-R-1, 1xMIC
  Time to kill 99.9%: >24 h
A. baumannii isolates; AMK-R-1, 4xMIC
  Time to kill 99.9%: >24 h
A. baumannii isolates; AMK-R-2, 1xMIC
  Time to kill 99.9%: >24 h
A. baumannii isolates; AMK-R-2, 4xMIC
  Time to kill 99.9%: >24 h
A. baumannii isolates; AMK-R-3, 1xMIC
  Time to kill 99.9%: >24 h
A. baumannii isolates; AMK-R-3, 4xMIC
  Time to kill 99.9%: >24 h
A. baumannii isolates; isolate AMK-R-1
  MIC: 4 µg/mL
A. baumannii isolates; isolate AMK-R-2
  MIC: 4 µg/mL
A. baumannii isolates; isolate AMK-R-3
  MIC: 2 µg/mL
A. baumannii isolates; isolate COL-R-1
  MIC: 8 µg/mL
A. baumannii isolates; isolate COL-R-2
  MIC: 4 µg/mL
A. baumannii isolates; isolate COL-R-3
  MIC: 16 µg/mL
A. baumannii isolates; isolate MPM-R-1
  MIC: 8 µg/mL
A. baumannii isolates; isolate MPM-R-2
  MIC: 4 µg/mL
A. baumannii isolates; isolate MPM-R-3
  MIC: 4 µg/mL
A. baumannii isolates; isolate Sus-1
  MIC: 1 µg/mL
A. baumannii isolates; isolate Sus-2
  MIC: 2 µg/mL
A. baumannii isolates; isolate Sus-3
  MIC: 8 µg/mL
A. baumannii isolates; isolate printed MPM-R-1 (second such line of Table 8, r14)
  MIC: 4 µg/mL
A. baumannii isolates; COL-R-1, 1xMIC
  Time to kill 99.9%: >24 h
A. baumannii isolates; COL-R-1, 4xMIC
  Time to kill 99.9%: >24 h
A. baumannii isolates; COL-R-2, 1xMIC
  Time to kill 99.9%: >24 h
A. baumannii isolates; COL-R-2, 4xMIC
  Time to kill 99.9%: >24 h
A. baumannii isolates; COL-R-3, 1xMIC
  Time to kill 99.9%: >24 h
A. baumannii isolates; COL-R-3, 4xMIC
  Time to kill 99.9%: >24 h
A. baumannii isolates; MPM-R-1 (second line, Table 8 r14), 1xMIC
  Time to kill 99.9%: >24 h
A. baumannii isolates; MPM-R-1 (second line, Table 8 r14), 4xMIC
  Time to kill 99.9%: >24 h
A. baumannii isolates; MPM-R-1, 1xMIC
  Time to kill 99.9%: >24 h
A. baumannii isolates; MPM-R-1, 4xMIC
  Time to kill 99.9%: >24 h
A. baumannii isolates; MPM-R-2, 1xMIC
  Time to kill 99.9%: >24 h
A. baumannii isolates; MPM-R-2, 4xMIC
  Time to kill 99.9%: >24 h
A. baumannii isolates; MPM-R-3, 1xMIC
  Time to kill 99.9%: >24 h
A. baumannii isolates; MPM-R-3, 4xMIC
  Time to kill 99.9%: >24 h
A. baumannii isolates; Sus-1, 1xMIC
  Time to kill 99.9%: >24 h
A. baumannii isolates; Sus-1, 4xMIC
  Time to kill 99.9%: >24 h
A. baumannii isolates; Sus-2, 1xMIC
  Time to kill 99.9%: >24 h
A. baumannii isolates; Sus-2, 4xMIC
  Time to kill 99.9%: >24 h
A. baumannii isolates; Sus-3, 1xMIC
  Time to kill 99.9%: >24 h
A. baumannii isolates; Sus-3, 4xMIC
  Time to kill 99.9%: >24 h
A. baumannii isolates
  effect in time-kill studies when tested alone: bacteriostatic
A. baumannii SAN strain
  effect in time-kill study when tested alone: bacteriostatic
A. baumannii SAN-94040 [1]; [3]
  survivors (%): 100%
A. baumannii SAN-94040 [1]; [4]
  No. of survivors: 10
  survivors (%): 71%
A. baumannii SAN-94040 [1]; [5]
  No. of survivors: 0
A. baumannii SAN-94040 [1]; [6]
  No. of survivors: 0
  survivors (%): 0%
A. baumannii SAN-94040 [1]; [7]
  No. of survivors: 0
A. baumannii SAN-94040 [1]; [8]
  No. of survivors: 14
A. baumannii SAN-94040 [1]; Study 1, SAN-94040
  time post-infection within which all animals died: ≤ 48 h
A. baumannii SAN-94040 [2]; [9]
  lung bacterial counts: 4.72E+09 CFU/g Lung
A. baumannii SAN-94040 [2]; Study 2, 48 h
  lung bacterial counts: 3.75E+05 CFU/g Lung

## C[C@@H](O)[C@H]1C(=O)N2C(C(=O)O)=C(S[C@@H]3CN[C@H](C(=O)N(C)C)C3)[C@H](C)[C@H]12 [meropenem]
A. baumannii isolates; AMK-R-1, 1xMIC
  Time to kill 99.9%: 5.2 h
A. baumannii isolates; AMK-R-1, 4xMIC
  Time to kill 99.9%: 3.2 h
A. baumannii isolates; AMK-R-2, 1xMIC
  Time to kill 99.9%: >24 h
A. baumannii isolates; AMK-R-2, 4xMIC
  Time to kill 99.9%: 6.1 h
A. baumannii isolates; AMK-R-3, 1xMIC
  Time to kill 99.9%: 3.6 h
A. baumannii isolates; AMK-R-3, 4xMIC
  Time to kill 99.9%: 1.8 h
A. baumannii isolates; isolate AMK-R-1
  MIC: 4 µg/mL
A. baumannii isolates; isolate AMK-R-2
  MIC: 16 µg/mL
A. baumannii isolates; isolate AMK-R-3
  MIC: 16 µg/mL
A. baumannii isolates; isolate COL-R-1
  MIC: 64 µg/mL
A. baumannii isolates; isolate COL-R-2
  MIC: 0.25 µg/mL
A. baumannii isolates; isolate COL-R-3
  MIC: 16 µg/mL
A. baumannii isolates; COL-R-1, 1xMIC
  Time to kill 99.9%: 3.6 h
A. baumannii isolates; COL-R-1, 4xMIC
  Time to kill 99.9%: 3.6 h
A. baumannii isolates; COL-R-2, 1xMIC
  Time to kill 99.9%: >24 h
A. baumannii isolates; COL-R-2, 4xMIC
  Time to kill 99.9%: 5.8 h
A. baumannii isolates; COL-R-3, 1xMIC
  Time to kill 99.9%: >24 h
A. baumannii isolates; COL-R-3, 4xMIC
  Time to kill 99.9%: 3.2 h
A. baumannii isolates
  effect in time-kill studies when tested alone: generally bactericidal
A. baumannii SAN strain
  effect in time-kill study when tested alone: bactericidal
A. baumannii SAN-94040 [1]; [3]
  survivors (%): 100%
A. baumannii SAN-94040 [1]; [4]
  No. of survivors: 14
  survivors (%): 100%
A. baumannii SAN-94040 [1]; [5]
  No. of survivors: 11
  survivors (%): 79%
A. baumannii SAN-94040 [1]; [6]
  No. of survivors: 6
  survivors (%): 43%
A. baumannii SAN-94040 [1]; [7]
  No. of survivors: 6
  survivors (%): 43%
A. baumannii SAN-94040 [1]; [8]
  No. of survivors: 14
A. baumannii SAN-94040 [1]; Study 1, survival
  efficacy compared to the control group: significant efficacy
A. baumannii SAN-94040 [2]; Study 2, 24 h
  blood bacterial counts: 0 CFU/mL Blood
A. baumannii SAN-94040 [2]; [9]
  lung bacterial counts: 3.75E+04 CFU/g Lung
A. baumannii SAN-94040 [2]; Study 2, 48 h
  blood bacterial counts: 0 CFU/mL Blood
  kidney bacterial counts: 0 CFU/g Kidneys
  liver bacterial counts: 0 CFU/g Liver
  lung bacterial counts: 5.56E+06 CFU/g Lung
A. baumannii SAN-94040 [2]; Study 2, 72 h
  blood bacterial counts: 0 CFU/mL Blood
  kidney bacterial counts: 0 CFU/g Kidneys
  liver bacterial counts: 0 CFU/g Liver
  spleen bacterial counts: 0 CFU/g Spleen
A. baumannii SAN-94040 [2]; Study 2, 72 h, surviving mice only
  lung bacterial counts: 1.00E+00 CFU/g Lung
